Test results reported in ChEMBL document CHEMBL3822442, “Synthesis and Pharmacological Characterization of Novel Glucagon-like Peptide-2 (GLP-2) Analogues with Low Systemic Clearance” (J Med Chem, 2016).
Active and inactive are the calls of the source. The rule behind the calls is not given here. Non-standard residues stand in square brackets, D forms with d. Residues, ends and D or L forms follow the SMILES beside them. ξ: configuration not given here. Cha = N[C@@H](CC1CCCCC1)C(=O)O; ξNle = CCCCC(N)C(=O)O

Key:
[1] = molecular target: T1, Glucagon-like peptide 1 receptor (Homo sapiens, UniProt P43220); assay: Agonist activity at human GLP1R expressed in HEK293 cells at 30 nM after 5 hrs by luciferase reporter gene assay; format: cell-based
T1 sequence (P43220 whole entry): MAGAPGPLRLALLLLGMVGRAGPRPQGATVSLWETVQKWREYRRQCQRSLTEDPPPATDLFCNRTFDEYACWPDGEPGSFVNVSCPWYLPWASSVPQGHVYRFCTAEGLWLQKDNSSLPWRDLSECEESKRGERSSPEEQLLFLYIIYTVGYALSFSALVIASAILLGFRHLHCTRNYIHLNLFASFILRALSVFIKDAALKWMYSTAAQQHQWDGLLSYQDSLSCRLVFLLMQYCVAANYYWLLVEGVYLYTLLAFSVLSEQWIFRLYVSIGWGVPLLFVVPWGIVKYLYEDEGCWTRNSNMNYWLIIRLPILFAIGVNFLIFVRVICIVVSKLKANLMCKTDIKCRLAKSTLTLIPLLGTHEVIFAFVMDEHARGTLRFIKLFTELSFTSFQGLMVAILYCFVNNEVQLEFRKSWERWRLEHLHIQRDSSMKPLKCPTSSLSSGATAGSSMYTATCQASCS

[2] = molecular target: T2, Glucagon-like peptide 2 receptor (Homo sapiens, UniProt O95838); assay: Agonist activity at human GLP2R expressed in HEK293 cells after 5 hrs by luciferase reporter gene assay; format: cell-based
T2 sequence (O95838 whole entry): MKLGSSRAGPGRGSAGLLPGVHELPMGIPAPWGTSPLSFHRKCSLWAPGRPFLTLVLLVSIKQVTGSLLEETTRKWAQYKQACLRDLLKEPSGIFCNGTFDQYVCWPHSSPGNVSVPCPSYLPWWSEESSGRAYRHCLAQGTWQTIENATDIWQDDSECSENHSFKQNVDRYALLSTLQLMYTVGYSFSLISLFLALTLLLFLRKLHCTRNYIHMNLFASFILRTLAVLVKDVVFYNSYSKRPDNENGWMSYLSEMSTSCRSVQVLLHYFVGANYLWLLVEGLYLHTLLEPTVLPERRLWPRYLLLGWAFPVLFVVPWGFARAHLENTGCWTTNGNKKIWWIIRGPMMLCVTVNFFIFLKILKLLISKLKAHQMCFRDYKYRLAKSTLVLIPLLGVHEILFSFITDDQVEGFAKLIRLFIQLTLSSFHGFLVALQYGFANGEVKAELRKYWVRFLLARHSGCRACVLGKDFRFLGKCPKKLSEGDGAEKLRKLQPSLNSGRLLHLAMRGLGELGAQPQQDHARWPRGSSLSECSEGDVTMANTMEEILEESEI

[3] = molecular target: Glucagon receptor (Homo sapiens) (UniProt P47871); assay: Agonist activity at human GCGR expressed in HEK293 cells after 5 hrs by luciferase reporter gene assay; format: cell-based
Chain of Glucagon receptor (Homo sapiens) (P47871 whole entry): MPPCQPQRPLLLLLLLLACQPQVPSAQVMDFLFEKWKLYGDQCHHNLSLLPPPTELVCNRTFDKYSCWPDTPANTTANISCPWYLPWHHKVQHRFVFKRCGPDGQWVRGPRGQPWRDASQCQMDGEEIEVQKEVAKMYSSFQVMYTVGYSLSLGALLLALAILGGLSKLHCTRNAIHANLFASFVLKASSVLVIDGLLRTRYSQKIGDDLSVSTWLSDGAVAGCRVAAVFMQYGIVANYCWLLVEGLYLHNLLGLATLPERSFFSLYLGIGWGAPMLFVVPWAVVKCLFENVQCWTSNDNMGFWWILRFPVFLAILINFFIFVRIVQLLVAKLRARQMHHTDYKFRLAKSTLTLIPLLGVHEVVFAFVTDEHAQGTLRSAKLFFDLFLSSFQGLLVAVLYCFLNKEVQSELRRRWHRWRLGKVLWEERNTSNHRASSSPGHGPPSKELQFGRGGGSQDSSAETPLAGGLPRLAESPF

[4] = Systemic clearance in Sprague-Dawley rat at 0.2 mg/kg, iv through cassette dosing measured up to 300 mins by LC/MS/MS analysis; format: ADME, organism-based; conditions: in vivo
[5] = molecular target: T1, Glucagon-like peptide 1 receptor; assay: Agonist activity at human GLP1R expressed in HEK293 cells after 5 hrs by luciferase reporter gene assay; format: cell-based
HEK293 = assay: Selectivity ratio of EC50 for human GLP1R expressed in HEK293 cells to EC50 for human GLP2R expressed in HEK293; format: cell-based

| Compound | Efficacy [1] [%] | EC50 [2] [nM] | Activity [3] | clearance [4] [mL/min/kg] | EC50 [5] [nM] | EC50 ([2]; hek293) [nM] | EC50 ([5]; hek293) [nM] | Ratio EC50 (HEK293) |
| --- | --- | --- | --- | --- | --- | --- | --- | --- |
| CCCCC(NC(=O)[C@H](CCC(=O)O)NC(=O)[C@H](CC(=O)O)NC(=O)[C@H](CO)NC(=O)[C@H](Cc1ccccc1)NC(=O)[C@H](CO)NC(=O)CNC(=O)[C@H](CC(=O)O)NC(=O)CNC(=O)[C@@H](N)Cc1cnc[nH]1)C(=O)N[C@@H](Cc1ccccc1)C(=O)N[C@H](C(=O)N[C@H](C(=O)N[C@@H](CC(C)C)C(=O)N[C@@H](CC(=O)O)C(=O)N[C@@H](CC(N)=O)C(=O)N[C@@H](CC(C)C)C(=O)N[C@@H](C)C(=O)N[C@@H](C)C(=O)N[C@@H](CCCNC(=N)N)C(=O)N[C@@H](CC(=O)O)C(=O)N[C@@H](Cc1ccccc1)C(=O)N[C@H](C(=O)N[C@@H](CC(N)=O)C(=O)N[C@@H](Cc1c[nH]c2ccccc12)C(=O)N[C@@H](CC(C)C)C(=O)N[C@H](C(=O)N[C@@H](CCC(N)=O)C(=O)N[C@H](C(=O)N[C@@H](CCCCN)C(N)=O)[C@@H](C)O)[C@@H](C)CC)[C@@H](C)CC)[C@@H](C)CC)[C@@H](C)O (stereo partly drawn) | 94 | 0.15 | inactive | 1.8 | 16 | – | – | 100 |
| CCCCC(NC(=O)[C@@H](CCC(=O)O)NC(=O)[C@@H](CC(=O)O)NC(=O)[C@@H](CO)NC(=O)[C@@H](Cc1ccccc1)NC(=O)[C@@H](CO)NC(=O)CNC(=O)[C@@H](CC(=O)O)NC(=O)CNC(=O)[C@@H](N)Cc1cnc[nH]1)C(=O)NC(Cc1ccc(Cl)cc1)C(=O)N[C@H](C(=O)N[C@H](C(=O)N[C@@H](CC(C)C)C(=O)N[C@@H](CC(=O)O)C(=O)N[C@@H](CC(N)=O)C(=O)N[C@@H](CC(C)C)C(=O)N[C@@H](C)C(=O)N[C@@H](C)C(=O)N[C@@H](CCCNC(=N)N)C(=O)N[C@@H](CC(=O)O)C(=O)N[C@@H](Cc1ccccc1)C(=O)N[C@H](C(=O)N[C@@H](CC(N)=O)C(=O)N[C@H](Cc1c[nH]c2ccccc12)C(=O)N[C@H](CC(C)C)C(=O)N[C@@H](C(=O)N[C@H](CCC(N)=O)C(=O)N[C@@H](C(=O)N[C@@H](CCCCN)C(N)=O)[C@H](C)O)[C@@H](C)CC)[C@H](C)CC)[C@H](C)CC)[C@@H](C)O (stereo partly drawn) | 89 | – | inactive | 0.55 | – | 0.16 | 8.8 | 55 |
| CCCCC(NC(=O)[C@H](CCC(=O)O)NC(=O)[C@H](CC(=O)O)NC(=O)[C@H](CO)NC(=O)[C@H](Cc1ccccc1)NC(=O)[C@H](CO)NC(=O)CNC(=O)[C@H](CC(=O)O)NC(=O)CNC(=O)[C@@H](N)Cc1cnc[nH]1)C(=O)N[C@@H](CC1CCCCC1)C(=O)N[C@H](C(=O)N[C@H](C(=O)N[C@@H](CC(C)C)C(=O)N[C@@H](CC(=O)O)C(=O)N[C@@H](CC(N)=O)C(=O)N[C@@H](CC(C)C)C(=O)N[C@@H](C)C(=O)N[C@@H](C)C(=O)N[C@@H](CCCNC(=N)N)C(=O)N[C@@H](CC(=O)O)C(=O)N[C@@H](Cc1ccccc1)C(=O)N[C@H](C(=O)N[C@@H](CC(N)=O)C(=O)N[C@@H](Cc1c[nH]c2ccccc12)C(=O)N[C@@H](CC(C)C)C(=O)N[C@H](C(=O)N[C@@H](CCC(N)=O)C(=O)N[C@H](C(=O)N[C@@H](CCCCN)C(N)=O)[C@@H](C)O)[C@@H](C)CC)[C@@H](C)CC)[C@@H](C)CC)[C@@H](C)O (stereo partly drawn) (H-HGDGSFSDE[ξNle][Cha]TILDNLAARDFINWLIQTK-NH2) | 83 | 0.51 | inactive | 0.69 | 8.9 | – | – | 17 |
| CCCCC(NC(=O)[C@H](CCC(=O)O)NC(=O)[C@H](CC(=O)O)NC(=O)[C@H](CO)NC(=O)[C@H](Cc1ccccc1)NC(=O)[C@H](CO)NC(=O)CNC(=O)[C@H](CC(=O)O)NC(=O)CNC(=O)[C@@H](N)Cc1cnc[nH]1)C(=O)N[C@H](Cc1cccc(Cl)c1)C(=O)N[C@H](C(=O)N[C@H](C(=O)N[C@@H](CC(C)C)C(=O)N[C@@H](CC(=O)O)C(=O)N[C@@H](CC(N)=O)C(=O)N[C@@H](CC(C)C)C(=O)N[C@@H](C)C(=O)N[C@@H](C)C(=O)N[C@@H](CCCNC(=N)N)C(=O)N[C@@H](CC(=O)O)C(=O)N[C@@H](Cc1ccccc1)C(=O)N[C@H](C(=O)N[C@@H](CC(N)=O)C(=O)N[C@@H](Cc1c[nH]c2ccccc12)C(=O)N[C@@H](CC(C)C)C(=O)N[C@H](C(=O)N[C@@H](CCC(N)=O)C(=O)N[C@H](C(=O)N[C@@H](CCCCN)C(N)=O)[C@@H](C)O)[C@@H](C)CC)[C@@H](C)CC)[C@@H](C)CC)[C@@H](C)O (stereo partly drawn) | 73 | 0.11 | inactive | 0.32 | 45 | – | – | 400 |
| CCCCC(NC(=O)[C@H](CCC(=O)O)NC(=O)[C@H](CC(=O)O)NC(=O)[C@H](CO)NC(=O)[C@H](Cc1ccccc1)NC(=O)[C@H](CO)NC(=O)CNC(=O)[C@H](CC(=O)O)NC(=O)CNC(=O)[C@@H](N)Cc1cnc[nH]1)C(=O)N[C@H](C(=O)N[C@H](C(=O)N[C@H](C(=O)N[C@@H](CC(C)C)C(=O)N[C@@H](CC(=O)O)C(=O)N[C@@H](CC(N)=O)C(=O)N[C@@H](CC(C)C)C(=O)N[C@@H](C)C(=O)N[C@@H](C)C(=O)N[C@@H](CCCNC(=N)N)C(=O)N[C@@H](CC(=O)O)C(=O)N[C@@H](Cc1ccccc1)C(=O)N[C@H](C(=O)N[C@@H](CC(N)=O)C(=O)N[C@@H](Cc1c[nH]c2ccccc12)C(=O)N[C@@H](CC(C)C)C(=O)N[C@H](C(=O)N[C@@H](CCC(N)=O)C(=O)N[C@H](C(=O)N[C@@H](CCCCN)C(N)=O)[C@@H](C)O)[C@@H](C)CC)[C@@H](C)CC)[C@@H](C)CC)[C@@H](C)O)[C@@H](C)CC (stereo partly drawn) (H-HGDGSFSDE[ξNle]ITILDNLAARDFINWLIQTK-NH2) | 92 | 0.13 | inactive | 5.6 | 110 | – | – | 840 |

Further compounds by falling EC50 [2], results first:

| Efficacy [1] [%] | EC50 [2] [nM] | Activity [3] | clearance [4] [mL/min/kg] | EC50 [5] [nM] | EC50 ([2]; hek293) [nM] | EC50 ([5]; hek293) [nM] | Compound | Ratio EC50 (HEK293) |
| --- | --- | --- | --- | --- | --- | --- | --- | --- |
| 36 | 0.11 | inactive | 0.73 | 100 | – | – | CCCCC(NC(=O)[C@H](CCC(=O)O)NC(=O)[C@H](CC(=O)O)NC(=O)[C@H](CO)NC(=O)[C@H](Cc1ccccc1)NC(=O)[C@H](CO)NC(=O)CNC(=O)[C@H](CC(=O)O)NC(=O)CNC(=O)[C@@H](N)Cc1cnc[nH]1)C(=O)N[C@H](Cc1ccccc1Cl)C(=O)N[C@H](C(=O)N[C@H](C(=O)N[C@@H](CC(C)C)C(=O)N[C@@H](CC(=O)O)C(=O)N[C@@H](CC(N)=O)C(=O)N[C@@H](CC(C)C)C(=O)N[C@@H](C)C(=O)N[C@@H](C)C(=O)N[C@@H](CCCNC(=N)N)C(=O)N[C@@H](CC(=O)O)C(=O)N[C@@H](Cc1ccccc1)C(=O)N[C@H](C(=O)N[C@@H](CC(N)=O)C(=O)N[C@@H](Cc1c[nH]c2ccccc12)C(=O)N[C@@H](CC(C)C)C(=O)N[C@H](C(=O)N[C@@H](CCC(N)=O)C(=O)N[C@H](C(=O)N[C@@H](CCCCN)C(N)=O)[C@@H](C)O)[C@@H](C)CC)[C@@H](C)CC)[C@@H](C)CC)[C@@H](C)O (stereo partly drawn) | 900 |
| 80 | 0.1 | inactive | 1.2 | 40 | – | – | CCCCC(NC(=O)[C@H](CCC(=O)O)NC(=O)[C@H](CC(=O)O)NC(=O)[C@H](CO)NC(=O)[C@H](Cc1ccccc1)NC(=O)[C@H](CO)NC(=O)CNC(=O)[C@H](CC(=O)O)NC(=O)CNC(=O)[C@@H](N)Cc1cnc[nH]1)C(=O)N[C@H](Cc1c[nH]c2ccccc12)C(=O)N[C@H](C(=O)N[C@H](C(=O)N[C@@H](CC(C)C)C(=O)N[C@@H](CC(=O)O)C(=O)N[C@@H](CC(N)=O)C(=O)N[C@@H](CC(C)C)C(=O)N[C@@H](C)C(=O)N[C@@H](C)C(=O)N[C@@H](CCCNC(=N)N)C(=O)N[C@@H](CC(=O)O)C(=O)N[C@@H](Cc1ccccc1)C(=O)N[C@H](C(=O)N[C@@H](CC(N)=O)C(=O)N[C@@H](Cc1c[nH]c2ccccc12)C(=O)N[C@@H](CC(C)C)C(=O)N[C@H](C(=O)N[C@@H](CCC(N)=O)C(=O)N[C@H](C(=O)N[C@@H](CCCCN)C(N)=O)[C@@H](C)O)[C@@H](C)CC)[C@@H](C)CC)[C@@H](C)CC)[C@@H](C)O (stereo partly drawn) | 400 |
| 49 | 0.1 | inactive | 1.1 | 80 | – | – | CCCCC(NC(=O)[C@H](CCC(=O)O)NC(=O)[C@H](CC(=O)O)NC(=O)[C@H](CO)NC(=O)[C@H](Cc1ccccc1)NC(=O)[C@H](CO)NC(=O)CNC(=O)[C@H](CC(=O)O)NC(=O)CNC(=O)[C@@H](N)Cc1cnc[nH]1)C(=O)N[C@H](Cc1cccs1)C(=O)N[C@H](C(=O)N[C@H](C(=O)N[C@@H](CC(C)C)C(=O)N[C@@H](CC(=O)O)C(=O)N[C@@H](CC(N)=O)C(=O)N[C@@H](CC(C)C)C(=O)N[C@@H](C)C(=O)N[C@@H](C)C(=O)N[C@@H](CCCNC(=N)N)C(=O)N[C@@H](CC(=O)O)C(=O)N[C@@H](Cc1ccccc1)C(=O)N[C@H](C(=O)N[C@@H](CC(N)=O)C(=O)N[C@@H](Cc1c[nH]c2ccccc12)C(=O)N[C@@H](CC(C)C)C(=O)N[C@H](C(=O)N[C@@H](CCC(N)=O)C(=O)N[C@H](C(=O)N[C@@H](CCCCN)C(N)=O)[C@@H](C)O)[C@@H](C)CC)[C@@H](C)CC)[C@@H](C)CC)[C@@H](C)O (stereo partly drawn) | 800 |
